Data reported in US20150164762A1, “USE OF ETHANOLAMINE PHOSPHATE” (priority 2012, published 2015).

Tested on: BEAS-2B
Assay: Comprehensive gene expression analysis with Whole Human Genome DNA microarray after EP treatment
Type: cell-based
Procedure: Cells of the established normal human airway epithelial cell line BEAS-2B were used in the experiment. These cells were expansively cultured in 10% FBS RPMI-1640, and seeded at a density of 1×10^5/cm^2 on a 24-well plate. After 24 hours 0.1% FBS RPMI-1640 was substituted, and EP was administered to a final concentration of 0 or 1 mM (n=4). After 24 hours, the cells were used as the DNA microarray samples. RNA was extracted using a QIAGEN RNeasy Mini Kit. The DNA microarray test was performed using a Whole Human Genome DNA microarray 4×44K (Agilent), and the necessary labeling reagents and the like for the DNA microarray test were all from Agilent. The DNA microarray test data were analyzed statistically with GeneSpring (Agilent) dedicated analysis software, and gene function analysis (Gene Ontology (GO) analysis) was performed based on differential expression. The purpose of the GO analysis is to determine stochastically the degree to which gene sets with statistically significant differential expression correspond to known functional classification gene sets. […] The p-value is calculated according to the following formula.

[1] = probe A_23_P306987, 1 mM EP, 24 h
[2] = probe A_23_P315815, NM_004495, EP vs control
[3] = probe A_23_P326913, BC019095, EP vs control
[4] = probe A_23_P336611, 1 mM EP, 24 h
[5] = probe A_23_P337242, 1 mM EP, 24 h
[6] = probe A_23_P344421, 1 mM EP, 24 h
[7] = probe A_23_P346311, 1 mM EP, 24 h
[8] = probe A_23_P358944, 1 mM EP, 24 h
[9] = probe A_23_P360777, NM_013960, EP vs control
[10] = probe A_23_P360797, 1 mM EP, 24 h
[11] = probe A_23_P371727, 1 mM EP, 24 h
[12] = probe A_23_P373521, 1 mM EP, 24 h
[13] = probe A_23_P382775, 1 mM EP, 24 h
[14] = probe A_23_P383278, NM_023078, EP vs control
[15] = probe A_23_P404887, 1 mM EP, 24 h
[16] = probe A_23_P407012, NM_172210, EP vs control
[17] = probe A_23_P411296, 1 mM EP, 24 h
[18] = probe A_23_P426305, NM_003734, EP vs control
[19] = probe A_23_P500034, 1 mM EP, 24 h
[20] = probe A_23_P502553, 1 mM EP, 24 h
[21] = probe A_23_P2094013, 1 mM EP, 24 h
[22] = probe A_24_P4661, 1 mM EP, 24 h
[23] = probe A_24_P12401, NM_001025366, EP vs control
[24] = probe A_24_P18105, NM_032466, EP vs control
[25] = probe A_24_P38363, 1 mM EP, 24 h
[26] = probe A_24_P60930, NM_006129, EP vs control
[27] = probe A_24_P83815, 1 mM EP, 24 h
[28] = probe A_24_P122921, 1 mM EP, 24 h
[29] = probe A_24_P135322, 1 mM EP, 24 h
[30] = probe A_24_P139152, 1 mM EP, 24 h
[31] = probe A_24_P139993, 1 mM EP, 24 h
[32] = probe A_24_P175519, NM_003329, EP vs control
[33] = probe A_24_P179400, NM_001025370, EP vs control
[34] = probe A_24_P193911, 1 mM EP, 24 h
[35] = probe A_24_P200000, NM_182915, EP vs control
[36] = probe A_24_P207479, 1 mM EP, 24 h
[37] = probe A_24_P209047, NM_000879, EP vs control

NCCOP(=O)(O)O [EP, Ethanolamine phosphate]
SOX7 expression R: Ratio to control [1]: 0.338 times | SOX7 expression log2 [ratio] [1]: −1.568 | NRG1 gene expression, R* ratio to control [2]: 0.666 times | NRG1 gene expression, log2 [ratio] [2]: −0.586 | PRUNE2 gene expression, R* ratio to control [3]: 1.441 times | PRUNE2 gene expression, log2 [ratio] [3]: 0.527 | APAF1 expression R*: Ratio to control [4]: 0.420 times | APAF1 expression log2 [ratio] [4]: −1.253 | TGFBR2 expression R*: Ratio to control [5]: 1.630 times | TGFBR2 expression log2 [ratio] [5]: 0.705 | ROBO4 expression R*: Ratio to control [6]: 1.633 times | ROBO4 expression log2 [ratio] [6]: 0.707 | BAX expression R*: Ratio to control [7]: 0.511 times | BAX expression log2 [ratio] [7]: −0.969 | PML expression R: Ratio to control [8]: 0.586 times | PML expression log2 [ratio] [8]: −0.770 | NRG1 gene expression, R* ratio to control [9]: 0.651 times | NRG1 gene expression, log2 [ratio] [9]: −0.620 | NTF3 expression R: Ratio to control [10]: 0.492 times | NTF3 expression log2 [ratio] [10]: −1.024 | CKS2 expression R*: Ratio to control [11]: 1.510 times | CKS2 expression log2 [ratio] [11]: 0.595 | HAND2 expression R*: Ratio to control [12]: 1.971 times | HAND2 expression log2 [ratio] [12]: 0.979 | BBC3 expression R*: Ratio to control [13]: 0.315 times | BBC3 expression log2 [ratio] [13]: −1.566 | PYCRL gene expression, R* ratio to control [14]: 1.441 times | PYCRL gene expression, log2 [ratio] [14]: 0.527 | BIK expression R*: Ratio to control [15]: 0.298 times | BIK expression log2 [ratio] [15]: −1.743 | CSF1 gene expression, R* ratio to control [16]: 0.593 times | CSF1 gene expression, log2 [ratio] [16]: −0.753 | CEBPB expression R*: Ratio to control [17]: 0,383 times | CEBPB expression log2 [ratio] [17]: −1.385 | AOC3 gene expression, R* ratio to control [18]: 1.540 times | AOC3 gene expression, log2 [ratio] [18]: 0.623 | GL12 expression R*: Ratio to control [19]: 2.060 times | GL12 expression log2 [ratio] [19]: 1.043 | TRIM35 expression R*: Ratio to control [20]: 0.618 times | TRIM35 expression log2 [ratio] [20]: −0.695 | CASP10 expression R*: Ratio to control [21]: 0.552 times | CASP10 expression log2 [ratio] [21]: −0.857 | E124 expression R*: Ratio to control [22]: 0.652 times | E124 expression log2 [ratio] [22]: −0.618 | VEGFA gene expression, R* ratio to control [23]: 0.540 times | VEGFA gene expression, log2 [ratio] [23]: −0.889 | ASPH gene expression, R* ratio to control [24]: 1.560 times | ASPH gene expression, log2 [ratio] [24]: 0.642 | MYC expression R*: Ratio to control [25]: 1.686 times | MYC expression log2 [ratio] [25]: 0.754 | BMP1 gene expression, R* ratio to control [26]: 0.613 times | BMP1 gene expression, log2 [ratio] [26]: −0.706 | NLRP1 expression R*: Ratio to control [27]: 0.558 times | NLRP1 expression log2 [ratio] [27]: −0.841 | BCL2L11 expression R*: Ratio to control [28]: 0.636 times | BCL2L11 expression log2 [ratio] [28]: −0.652 | NRP1 expression R*: Ratio to control [29]: 1.664 times | NRP1 expression log2 [ratio] [29]: 0.735 | COL8A1 expression R*: Ratio to control [30]: 1.703 times | COL8A1 expression log2 [ratio] [30]: 0.768 | CASP10 expression R*: Ratio to control [31]: 0.609 times | CASP10 expression log2 [ratio] [31]: −0.716 | TXN gene expression, R* ratio to control [32]: 1.438 times | TXN gene expression, log2 [ratio] [32]: 0.524 | VEGFA gene expression, R* ratio to control [33]: 0.650 times | VEGFA gene expression, log2 [ratio] [33]: −0.621 | MAPRE2 expression R*: Ratio to control [34]: 1.666 times | MAPRE2 expression log2 [ratio] [34]: 0.736 | STEAP3 gene expression, R* ratio to control [35]: 2.009 times | STEAP3 gene expression, log2 [ratio] [35]: 1.007 | DEDD2 expression R*: Ratio to control [36]: 0.597 times | DEDD2 expression log2 [ratio] [36]: −0.744 | IL5 gene expression, R* ratio to control [37]: 0.304 times | IL5 gene expression, log2 [ratio] [37]: −1.719
